Measured values taken from ChEMBL document CHEMBL5316345, “Discovery of the Potent and Selective MC4R Antagonist PF-07258669 for the Potential Treatment of Appetite Loss” (J Med Chem, 2023).
The source made the active and inactive calls. The calls are words filed in the database; no cut-off is given here.

Assays:
[1] = molecular target: cAMP and cAMP-inhibited cGMP 3',5'-cyclic phosphodiesterase 10A (Homo sapiens, UniProt Q9Y233); experiment: Inhibition of human PDE10A1
[2] = AUC (0 to infinity) in Wistar Han rat at 1 mg/kg, iv measured at 0.033 to 24 hrs by LC-MS/MS analysis; format: ADME, organism-based; parameters: time upper 24 hrs, dose 1 mg/kg, time lower 0.033 hrs, route iv; settings: in vivo
[3] = Volume of distribution at steady state in Wistar Han rat at 1 mg/kg, iv measured at 0.033 to 24 hrs by LC-MS/MS analysis; format: ADME, organism-based; settings: in vivo, time 0.033-24 hrs, read-out: Vdss
[4] = AUC (0 to infinity) in Wistar Han rat at 5 mg/kg, po measured at 0.083 to 24 hrs by LC-MS/MS analysis; format: ADME, organism-based; parameters: dose 5 mg/kg, time 0.083-24 hrs, route po; settings: in vivo
[5] = molecular target: cGMP-specific 3',5'-cyclic phosphodiesterase (Homo sapiens, UniProt O76074); experiment: Inhibition of human PDE5A1
[6] = AUClast in Wistar Han rat at 1 mg/kg, iv measured at 0.033 to 24 hrs by LC-MS/MS analysis; format: ADME, organism-based; parameters: dose 1 mg/kg, time upper 24 hrs, time lower 0.033 hrs, route iv; settings: in vivo
[7] = molecular target: Voltage-gated inwardly rectifying potassium channel KCNH2 (Homo sapiens, UniProt Q12809); experiment: Inhibition of hERG expressed in CHO cells stably at -80 mV holding potential by automated patch clamp method; format: toxicity, cell-based
[8] = molecular target: Dual specificity calcium/calmodulin-dependent 3',5'-cyclic nucleotide phosphodiesterase 1B (Homo sapiens, UniProt Q01064); experiment: Inhibition of human PDE1B1
Mus musculus [9] = experiment: Effect on body weight in anorexia/cachexia mouse model assessed as reduction in cumulative food intake at 10 mg/kg, po administered twice a day for 20 days and measured at 1 to 21 days; format: functional; parameters: scale not given: the % may be the effect or the level left; settings: time 20 day
[10] = molecular target: 3',5'-cyclic-AMP phosphodiesterase 4D (Homo sapiens, UniProt Q08499); experiment: Inhibition of human PDE4D3
[11] = Displacement of [125I]-NDP-alpha-MSH from dog MC4R expressed in CHO cells by microbeta counter analysis; format: cell-based, Canis lupus familiaris
[12] = Half life in Beagle dog at 1 mg/kg, iv measured at 0.033 to 24 hrs by LC-MS/MS analysis; format: ADME, organism-based, Canis lupus familiaris; settings: in vivo, time 0.033-24 hrs
[13] = Half life in Wistar Han rat at 5 mg/kg, po measured at 0.083 to 24 hrs by LC-MS/MS analysis; format: ADME, organism-based; settings: in vivo, time 0.083-24 hrs
Mus musculus [14] = experiment: Effect on body weight in anorexia/cachexia mouse model assessed as cumulative body weight gain at 10 mg/kg, po administered twice a day for 20 days and measured at 1 to 21 days; format: functional; settings: time 1-21 day
Mus musculus [15] = experiment: Effect on body weight in anorexia/cachexia mouse model assessed as reduction in cumulative food intake at 0.3 mg/kg, po administered twice a day for 20 days and measured at 1 to 21 days; format: functional; parameters: scale not given: the % may be the effect or the level left; settings: time 1-21 day
Melanocortin receptor 5 = Melanocortin receptor 5 (Homo sapiens, UniProt P33032); experiment: Displacement of [125I]-NDP-alpha-MSH from human MC5R expressed in CHO cells measured for 2 hrs by microbeta counter analysis; format: cell-based
[16] = molecular target: Adrenocorticotropic hormone receptor (Homo sapiens) (UniProt Q01718); experiment: Agonist activity at human MC2R expressed in CHO cells assessed as increase in alpha-MSH induced cAMP level measured for 60 mins; format: functional, cell-based
[17] = Oral bioavailability in Beagle dog at 1 mg/kg measured at 0.25 to 24 hrs by LC-MS/MS analysis; format: ADME, organism-based, Canis lupus familiaris; settings: in vivo, time 0.25-24 hrs
Mus musculus [18] = experiment: Effect on body weight in anorexia/cachexia mouse model assessed as cumulative body weight gain at 1 mg/kg, po administered twice a day for 20 days and measured at 1 to 21 days; format: functional; settings: time 1-21 day
Mus musculus [19] = experiment: Effect on body weight in anorexia/cachexia mouse model assessed as body weight gain administered twice a day for 20 days and measured at 1 to 21 days; format: functional, organism-based; settings: dose 0.3-10 mg/kg, time 1-21 day
[20] = molecular target: Melanocyte-stimulating hormone receptor (Homo sapiens, UniProt Q01726); experiment: Displacement of [125I]-NDP-alpha-MSH from human MC1R expressed in CHO cells measured for 2 hrs by microbeta counter analysis; format: cell-based
Phosphodiesterase 6 = experiment: Inhibition of human PDE6; format: protein assay
[21] = AUClast in Wistar Han rat at 5 mg/kg, po measured at 0.083 to 24 hrs by LC-MS/MS analysis; format: ADME, organism-based; parameters: time upper 24 hrs, dose 5 mg/kg, time lower 0.083 hrs, route po; settings: in vivo
[22] = Tmax in Beagle dog at 1 mg/kg, po measured at 0.25 to 24 hrs by LC-MS/MS analysis; format: ADME, organism-based, Canis lupus familiaris; settings: in vivo, time 0.25-24 hrs
[23] = Volume of distribution at steady state in Beagle dog at 1 mg/kg, iv measured at 0.033 to 24 hrs by LC-MS/MS analysis; format: ADME, organism-based, Canis lupus familiaris; settings: in vivo, time 0.033-24 hrs, read-out: Vdss
[24] = molecular target: High affinity cAMP-specific and IBMX-insensitive 3',5'-cyclic phosphodiesterase 8B (Homo sapiens, UniProt O95263); experiment: Inhibition of human PDE8B
Cytochrome P450 3A = Cytochrome P450 3A (Homo sapiens, UniProt P08684+P20815+Q9HB55+P24462); experiment: Time dependent inhibition of CYP3A (unknown origin) at 10 uM relative to control; format: ADME, protein assay
[25] = AUClast in Beagle dog at 1 mg/kg, iv measured at 0.033 to 24 hrs by LC-MS/MS analysis; format: ADME, organism-based, Canis lupus familiaris; parameters: dose 1 mg/kg, time 0.033-24 hrs, route iv; settings: in vivo
Mus musculus [26] = experiment: Effect on body weight in anorexia/cachexia mouse model assessed as reduction in cumulative food intake at 1 mg/kg, po administered twice a day for 20 days and measured at 1 to 21 days; format: functional; parameters: scale not given: the % may be the effect or the level left; settings: time 1-21 day
[27] = molecular target: cGMP-inhibited 3',5'-cyclic phosphodiesterase 3A (Homo sapiens, UniProt Q14432); experiment: Inhibition of human PDE3A
[28] = Clearance in Beagle dog plasma at 1 mg/kg, iv measured at 0.033 to 24 hrs by LC-MS/MS analysis; format: ADME, organism-based, Canis lupus familiaris; settings: time 0.033-24 hrs
[29] = Octanol-water distribution coefficient, logD of the compound at pH 7.4 by RP-HPLC analysis; format: physicochemical
[30] = molecular target: Sodium channel protein type 5 subunit alpha (Homo sapiens, UniProt Q14524); experiment: Inhibition of recombinant human Nav1.5 expressed in CHO cells by whole cell voltage clamp electrophysiology recording; format: cell-based
Mus musculus [31] = experiment: Effect on body weight in anorexia/cachexia mouse model assessed as increase in food intake administered twice a day for 20 days and measured at 1 to 21 days; format: functional, organism-based; settings: dose 0.3-10 mg/kg, time 1-21 day
Mus musculus [32] = experiment: Effect on body weight in anorexia/cachexia mouse model assessed as cumulative body weight gain at 3 mg/kg, po administered twice a day for 20 days and measured at 1 to 21 days; format: functional; settings: time 1-21 day
[33] = AUClast in Beagle dog at 1 mg/kg, po measured at 0.25 to 24 hrs by LC-MS/MS analysis; format: ADME, organism-based, Canis lupus familiaris; parameters: time upper 24 hrs, dose 1 mg/kg, time lower 0.25 hrs, route po; settings: in vivo
[34] = molecular target: Voltage-dependent L-type calcium channel subunit alpha-1C (Homo sapiens, UniProt Q13936); experiment: Inhibition of Cav1.2 (unknown origin)
Melanocortin receptor 4 = Melanocortin receptor 4 (Rattus norvegicus, UniProt P70596); experiment: Displacement of [125I]-NDP-alpha-MSH from rat MC4R expressed in CHO cells by microbeta counter analysis; format: cell-based
[35] = Half life in Wistar Han rat at 1 mg/kg, iv measured at 0.033 to 24 hrs by LC-MS/MS analysis; format: ADME, organism-based; settings: in vivo, time 0.033-24 hrs

Sequence of Dual specificity calcium/calmodulin-dependent 3',5'-cyclic nucleotide phosphodiesterase 1B (Q01064 whole entry): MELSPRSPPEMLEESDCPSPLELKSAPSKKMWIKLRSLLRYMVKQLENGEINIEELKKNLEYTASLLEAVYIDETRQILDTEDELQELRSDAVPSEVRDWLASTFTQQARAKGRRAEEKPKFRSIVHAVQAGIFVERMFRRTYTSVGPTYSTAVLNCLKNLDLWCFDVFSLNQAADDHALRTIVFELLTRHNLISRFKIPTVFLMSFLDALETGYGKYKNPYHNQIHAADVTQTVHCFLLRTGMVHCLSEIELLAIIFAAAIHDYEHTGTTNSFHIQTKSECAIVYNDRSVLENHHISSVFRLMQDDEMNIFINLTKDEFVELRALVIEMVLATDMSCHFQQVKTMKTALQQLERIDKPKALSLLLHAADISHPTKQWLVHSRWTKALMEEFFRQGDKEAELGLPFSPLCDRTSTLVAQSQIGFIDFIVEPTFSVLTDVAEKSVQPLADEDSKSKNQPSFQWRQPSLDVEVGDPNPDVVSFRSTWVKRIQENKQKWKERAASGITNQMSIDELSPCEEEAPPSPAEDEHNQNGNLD
Sequence of Sodium channel protein type 5 subunit alpha (Q14524 whole entry): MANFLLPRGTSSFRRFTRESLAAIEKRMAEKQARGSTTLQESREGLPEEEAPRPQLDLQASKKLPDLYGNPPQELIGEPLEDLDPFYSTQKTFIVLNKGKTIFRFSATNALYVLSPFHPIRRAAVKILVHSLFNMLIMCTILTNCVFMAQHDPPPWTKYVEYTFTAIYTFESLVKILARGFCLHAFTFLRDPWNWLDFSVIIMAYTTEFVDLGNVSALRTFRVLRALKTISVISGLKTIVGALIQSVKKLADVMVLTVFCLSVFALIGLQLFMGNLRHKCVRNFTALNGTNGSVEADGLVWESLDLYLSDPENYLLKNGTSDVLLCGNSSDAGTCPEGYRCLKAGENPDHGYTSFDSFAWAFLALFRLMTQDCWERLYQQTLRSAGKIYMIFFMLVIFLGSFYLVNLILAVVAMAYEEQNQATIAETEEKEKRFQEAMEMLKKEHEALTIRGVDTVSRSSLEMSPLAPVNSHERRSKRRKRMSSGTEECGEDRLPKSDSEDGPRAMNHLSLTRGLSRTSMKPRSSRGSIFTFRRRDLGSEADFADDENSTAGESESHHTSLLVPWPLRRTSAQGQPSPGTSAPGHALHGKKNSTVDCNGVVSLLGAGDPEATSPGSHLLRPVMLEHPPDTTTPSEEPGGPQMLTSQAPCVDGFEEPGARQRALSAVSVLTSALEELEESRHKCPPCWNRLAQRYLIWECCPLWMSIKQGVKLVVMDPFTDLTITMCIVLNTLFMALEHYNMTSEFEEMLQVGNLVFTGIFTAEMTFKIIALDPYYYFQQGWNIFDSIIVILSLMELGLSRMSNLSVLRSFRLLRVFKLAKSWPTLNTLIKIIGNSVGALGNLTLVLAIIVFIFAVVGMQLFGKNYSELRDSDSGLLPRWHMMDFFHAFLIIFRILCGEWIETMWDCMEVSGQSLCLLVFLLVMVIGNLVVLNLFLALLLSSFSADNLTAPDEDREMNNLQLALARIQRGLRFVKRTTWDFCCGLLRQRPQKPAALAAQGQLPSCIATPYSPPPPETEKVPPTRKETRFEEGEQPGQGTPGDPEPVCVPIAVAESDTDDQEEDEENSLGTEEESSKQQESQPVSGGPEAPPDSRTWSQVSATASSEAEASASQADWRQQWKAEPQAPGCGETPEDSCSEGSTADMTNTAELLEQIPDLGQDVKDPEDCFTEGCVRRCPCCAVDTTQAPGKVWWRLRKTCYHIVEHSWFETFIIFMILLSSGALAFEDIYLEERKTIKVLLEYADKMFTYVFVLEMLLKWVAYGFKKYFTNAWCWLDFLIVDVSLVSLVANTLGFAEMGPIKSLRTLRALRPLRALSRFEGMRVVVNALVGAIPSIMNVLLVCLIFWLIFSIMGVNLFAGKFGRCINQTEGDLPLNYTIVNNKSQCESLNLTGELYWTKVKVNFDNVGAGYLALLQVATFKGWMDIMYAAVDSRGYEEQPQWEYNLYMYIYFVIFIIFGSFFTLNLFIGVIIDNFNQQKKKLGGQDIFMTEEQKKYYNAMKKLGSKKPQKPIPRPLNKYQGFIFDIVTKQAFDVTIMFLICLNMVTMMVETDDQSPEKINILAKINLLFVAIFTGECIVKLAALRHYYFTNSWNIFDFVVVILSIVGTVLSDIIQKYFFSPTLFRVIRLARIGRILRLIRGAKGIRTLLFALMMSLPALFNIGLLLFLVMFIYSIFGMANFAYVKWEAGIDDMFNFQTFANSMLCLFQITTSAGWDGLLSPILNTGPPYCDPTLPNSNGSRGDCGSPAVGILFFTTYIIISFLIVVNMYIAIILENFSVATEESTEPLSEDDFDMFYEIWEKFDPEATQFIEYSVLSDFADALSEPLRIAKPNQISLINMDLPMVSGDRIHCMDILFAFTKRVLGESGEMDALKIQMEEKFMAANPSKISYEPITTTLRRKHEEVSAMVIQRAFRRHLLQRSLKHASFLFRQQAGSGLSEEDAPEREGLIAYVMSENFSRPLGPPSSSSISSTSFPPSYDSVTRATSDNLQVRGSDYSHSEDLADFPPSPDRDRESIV
Sequence of Melanocortin receptor 4 (P70596 whole entry): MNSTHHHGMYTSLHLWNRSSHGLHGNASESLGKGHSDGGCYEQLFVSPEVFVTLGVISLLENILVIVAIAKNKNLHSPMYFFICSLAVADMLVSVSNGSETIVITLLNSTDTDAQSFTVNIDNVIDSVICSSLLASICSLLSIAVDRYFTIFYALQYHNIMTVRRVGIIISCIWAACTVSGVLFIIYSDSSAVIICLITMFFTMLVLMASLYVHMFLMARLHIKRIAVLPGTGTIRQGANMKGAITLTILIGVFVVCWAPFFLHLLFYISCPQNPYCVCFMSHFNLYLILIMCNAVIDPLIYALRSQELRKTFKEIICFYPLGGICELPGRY
Sequence of Voltage-dependent L-type calcium channel subunit alpha-1C (Q13936 whole entry): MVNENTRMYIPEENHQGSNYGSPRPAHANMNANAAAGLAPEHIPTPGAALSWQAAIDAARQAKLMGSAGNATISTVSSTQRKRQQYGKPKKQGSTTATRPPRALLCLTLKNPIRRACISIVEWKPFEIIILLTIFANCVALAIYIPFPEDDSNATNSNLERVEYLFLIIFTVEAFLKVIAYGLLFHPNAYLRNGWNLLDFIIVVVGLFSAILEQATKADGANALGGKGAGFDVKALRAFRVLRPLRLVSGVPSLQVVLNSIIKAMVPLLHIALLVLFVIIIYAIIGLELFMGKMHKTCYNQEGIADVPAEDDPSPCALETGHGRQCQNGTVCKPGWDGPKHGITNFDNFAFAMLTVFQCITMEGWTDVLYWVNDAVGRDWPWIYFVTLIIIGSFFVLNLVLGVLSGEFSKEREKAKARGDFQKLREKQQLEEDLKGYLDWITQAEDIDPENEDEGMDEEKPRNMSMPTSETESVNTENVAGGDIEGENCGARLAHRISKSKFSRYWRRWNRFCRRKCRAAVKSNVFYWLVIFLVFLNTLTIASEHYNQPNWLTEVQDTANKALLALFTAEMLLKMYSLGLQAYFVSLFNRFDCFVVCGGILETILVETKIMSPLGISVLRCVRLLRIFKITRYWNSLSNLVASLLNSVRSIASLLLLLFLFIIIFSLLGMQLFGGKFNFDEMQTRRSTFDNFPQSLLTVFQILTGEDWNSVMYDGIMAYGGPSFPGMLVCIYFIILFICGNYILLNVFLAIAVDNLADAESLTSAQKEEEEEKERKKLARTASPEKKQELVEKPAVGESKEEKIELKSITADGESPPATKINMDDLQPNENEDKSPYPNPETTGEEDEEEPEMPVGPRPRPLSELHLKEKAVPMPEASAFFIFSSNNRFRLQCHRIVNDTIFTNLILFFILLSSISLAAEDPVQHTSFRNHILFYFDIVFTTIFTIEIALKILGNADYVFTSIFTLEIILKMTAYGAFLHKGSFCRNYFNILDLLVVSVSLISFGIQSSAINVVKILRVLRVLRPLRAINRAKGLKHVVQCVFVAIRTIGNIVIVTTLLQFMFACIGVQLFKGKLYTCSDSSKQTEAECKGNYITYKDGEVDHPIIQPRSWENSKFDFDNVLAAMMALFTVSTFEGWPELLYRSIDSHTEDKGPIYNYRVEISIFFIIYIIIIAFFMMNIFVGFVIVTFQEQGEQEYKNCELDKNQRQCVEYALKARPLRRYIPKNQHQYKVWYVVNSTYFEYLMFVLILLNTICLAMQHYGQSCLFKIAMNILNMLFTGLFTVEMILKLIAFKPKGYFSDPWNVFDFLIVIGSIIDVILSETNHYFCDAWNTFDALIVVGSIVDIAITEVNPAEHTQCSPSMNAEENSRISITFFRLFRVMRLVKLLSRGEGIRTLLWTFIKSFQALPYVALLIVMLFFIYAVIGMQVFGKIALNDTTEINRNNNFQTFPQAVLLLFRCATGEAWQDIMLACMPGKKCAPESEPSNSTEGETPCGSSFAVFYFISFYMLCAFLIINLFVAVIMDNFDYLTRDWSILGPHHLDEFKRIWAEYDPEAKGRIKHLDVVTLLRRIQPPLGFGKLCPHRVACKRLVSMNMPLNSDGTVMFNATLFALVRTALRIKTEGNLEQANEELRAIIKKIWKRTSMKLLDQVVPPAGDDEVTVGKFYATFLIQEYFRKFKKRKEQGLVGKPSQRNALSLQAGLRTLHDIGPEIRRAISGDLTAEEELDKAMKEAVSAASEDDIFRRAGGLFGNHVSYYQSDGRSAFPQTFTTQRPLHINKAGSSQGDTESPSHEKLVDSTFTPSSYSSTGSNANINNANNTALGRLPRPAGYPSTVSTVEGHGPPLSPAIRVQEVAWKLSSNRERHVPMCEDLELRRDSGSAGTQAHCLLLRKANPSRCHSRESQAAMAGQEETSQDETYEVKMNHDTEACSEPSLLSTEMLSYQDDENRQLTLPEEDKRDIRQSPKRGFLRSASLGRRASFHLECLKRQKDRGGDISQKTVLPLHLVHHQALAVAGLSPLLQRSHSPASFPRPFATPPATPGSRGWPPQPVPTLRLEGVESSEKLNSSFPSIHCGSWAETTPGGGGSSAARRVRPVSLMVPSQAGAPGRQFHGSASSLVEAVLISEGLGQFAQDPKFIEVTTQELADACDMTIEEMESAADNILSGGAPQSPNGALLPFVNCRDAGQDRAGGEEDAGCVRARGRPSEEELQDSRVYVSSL

In the case of `COc1cc([C@@H](C)C(=O)N2CC[C@@]3(COc4cc(-c5ncccn5)c(C)nc4N3)C2)c(F)cn1`, the IC50 [1] is reported as over 50 µM, the AUC(0-inf) [2] is reported as 785 ng·h/mL and the Vd [3] is reported as 0.95 L/kg. The AUC(0-inf) [4] was 1120 ng·h/mL, the IC50 [5] was over 50 µM and the AUC(0-t) [6] was 780 ng·h/mL. The IC50 [7] was 27 µM, the IC50 [8] was over 50 µM and the Activity (Mus musculus [9]) was 111%. For the same compound, the IC50 [10] was over 50 µM, the Ki [11] was 0.094 nM and the half-life [12] was 138 min. The half-life [13] was 58.8 min, the Activity (Mus musculus [14]) was 22% and the Activity (Mus musculus [15]) was 23%. The Ki (Melanocortin receptor 5) was 0.84 µM, the Activity [16] was “inactive” and the F [17] was 93%. For the same compound, the Activity (Mus musculus [18]) was 5%, the Activity (Mus musculus [19]) was “Dose-Dependent Effect” and the Ki [20] was over 1.6 µM. It also gave an IC50 (Phosphodiesterase 6) of over 50 µM, an AUC(0-t) [21] of 1110 ng·h/mL and a Tmax [22] of 22.8 min. For the same compound, the Vd [23] was 1.3 L/kg, the IC50 [24] was over 50 µM and the K (Cytochrome P450 3A) was 0.09 min⁻¹. The AUC(0-t) [25] was 1640 ng·h/mL, the Activity (Mus musculus [26]) was 26% and the IC50 [27] was over 50 µM. For the same compound, the clearance [28] was 11 mL/min/kg, the logD [29] was 2.6 and the IC50 [30] was over 100 µM. The Activity (Mus musculus [31]) was “Dose-Dependent Effect”, the Activity (Mus musculus [32]) was 9% and the AUC(0-t) [33] was 4580 ng·h/mL. The IC50 [34] was over 100 µM, the Ki (Melanocortin receptor 4) was 0.00052 µM and the half-life [35] was 60 min.
